Experimental findings from BindingDB's records for doi:10.1021/ml300330m (Glaxosmithkline, 2013) are described below.

The experiment is described as follows: Inhibition of PI3Kbeta human in PTEN wild type HCC1954 cells assessed as cell growth inhibition.

Each structure is given as a SMILES string.

As usually defined, the EC50 is the concentration giving half of the maximal effect. Turning to `Cc1nn2c(O)cc(N3CCOCC3)nc2c1Cc1cccc(C(F)(F)F)c1C`, the 50% effective concentration (EC50) stood at 15.8 µM.
Turning to `Cc1nn2c(O)cc(N3CCOCC3)nc2c1Cc1cccc2ccccc12`, the EC50 was found to be 31.6 µM.
As for `Cc1c(Cc2cnn3c(O)cc(N4CCOCC4)nc23)cccc1C(F)(F)F`, the figure is 15.8 µM; as for `Cc1nn2c(O)cc(C3CCOCC3)nc2c1Cc1cccc(C(F)(F)F)c1C`, 25.1 µM; as for `Cc1nn2c(NC(N)=O)cc(N3CCOCC3)nc2c1Cc1cccc(C(F)(F)F)c1C`, 12.6 µM.
For the molecule `Cc1nn2c(N)cc(N3CCOCC3)nc2c1Cc1cccc(C(F)(F)F)c1C`, the EC50 is 12.6 µM.
